Source: patent US20250215039A1, “NUCLEOSIDES FOR TREATING CANCER” (PRIMEFOUR THERAPEUTICS, INC., priority 2022, published 2025)
Like-named read-outs stand apart in the source and are kept apart here.

System: cancer cell lines
Test: Cancer cell proliferation activity (CellTiterGlo, 72 h)
Assay type: cell-based
Conditions: 72 h, 72 h, read-out: IC50
Method: Dose response relationships on cell proliferation was assessed for representative Compounds of the Disclosure on cancer cell lines. Briefly, compound treatment of cells started one day after seeding with a final DMSO concentration of 0.1%, and was performed by nanodrop-dispensing using a Tecan Dispenser. 0.1% DMSO (solvent) and Staurosporine (10 μM) served as high control (100% viability) and low control (0% viability), respectively.
Cells were cultured in the appropriate media. For the assays, cells were seeded in white cell culture-treated flat and clear bottom multiwell plates and incubated at 37° C. overnight before compound was added. After incubation for 72 h at 37° C. at 5% or 10% CO2 dependent on the medium, cell plates were equilibrated to room temperature for one hour, CellTiterGlo reagent (Promega) was added and luminescence was measured approximately an hour later using a luminometer.
Raw data were converted into percent cell viability relative to the high and low control, which were set to 100% and 0%, respectively.
The IC50 values are summarized in Tables 9A-1, Table 10A, and Table 10B.

## C[C@]1(CO)O[C@@H](n2cc(F)c(=O)[nH]c2=O)C[C@@H]1O [Cpd. No. 105, 5-fluoro-1-((2R,4S,5R)-4-hydroxy-5-(hydroxymethyl)-5-methyltetrahydrofuran-2-yl)pyrimidine-2,4(1H,3H)-dione]
5637 cell line (bladder)
  IC50: 740 nM
CLS439 cell line (bladder)
  IC50: > 50000 nM
HS729 cell line (muscle)
  IC50: 1370 nM
HSS78T cell line
  IC50: > 50000 nM
JAR cell line (placenta)
  IC50: 5830 nM
SKMELS cell line
  IC50: 5100 nM
Homo sapiens, 22Rv1, 72 h, 22RV1 cell line (prostate)
  IC50: 310 nM
Homo sapiens, 786-0, 72 h, 786O cell line (kidney)
  IC50: 2510 nM
Homo sapiens, A204, 72 h, A204 cell line (muscle)
  IC50: 2550 nM
Homo sapiens, A549, 72 h, A549 cell line
  IC50: 530 nM
Homo sapiens, A673, 72 h, A673 cell line (bone)
  IC50: 2810 nM
Homo sapiens, A2780, 72 h, A2780 cell line (ovary)
  IC50: 3500 nM
Homo sapiens, A-375, 72 h, A375 cell line (skin)
  IC50: 3510 nM
Homo sapiens, A-431, 72 h, A431 cell line (skin)
  IC50: 50 nM
Homo sapiens, ACHN, ACHN cell line (kidney)
  IC50: 270 nM
Homo sapiens, ASPC1, 72 h, ASPC1 cell line (pancreas)
  IC50: 160 nM
Homo sapiens, BT-20, 72 h, BT20 cell line (breast)
  IC50: > 50000 nM
Homo sapiens, BXPC-3, 72 h, BXPC3 cell line (pancreas)
  IC50: 20 nM
Homo sapiens, C-33-A, C33A cell line (cervical)
  IC50: 1580 nM
Homo sapiens, CAKI-1, 72 h, CAKI1 cell line (kidney)
  IC50: > 50000 nM
Homo sapiens, COLO 205, 72 h, COLO205 cell line (colon)
  IC50: 310 nM
Homo sapiens, COLO-678, 72 h, COLO678 cell line (colon)
  IC50: > 50000 nM
Homo sapiens, Ca-Ski, CASKI cell line (cervical)
  IC50: 2470 nM
Homo sapiens, Caco-2, 72 h, CACO2 cell line (colon)
  IC50: > 50000 nM
Homo sapiens, Calu-6, 72 h, CALU6 cell line (lung)
  IC50: 1710 nM
Homo sapiens, DLD-1, 72 h, DLD1 cell line (colon)
  IC50: 3740 nM
Homo sapiens, DU-145, 72 h, DU145 cell line (prostate)
  IC50: 1000 nM
Homo sapiens, EFO-21, 72 h, EFO21 cell line (ovary)
  IC50: 2780 nM
Homo sapiens, EJ-28, 72 h, EJ28 cell line (bladder)
  IC50: 1720 nM
Homo sapiens, Granta-519, 72 h, GRANTA-519 cell line (hematological)
  IC50: 650 nM
Homo sapiens, HCT-15, 72 h, HCT15 cell line (colon)
  IC50: 2950 nM
Homo sapiens, HCT-116, 72 h, HCT116 cell line (colon)
  IC50: 5530 nM
Homo sapiens, HEK293, 72 h, HEK293 cell line (kidney)
  IC50: 4350 nM
Homo sapiens, HL-60, 72 h, HL-60 cell line (hematological)
  IC50: 3870 nM
Homo sapiens, HT-29, 72 h, HT29 cell line (colon)
  IC50: 530 nM
Homo sapiens, HT-1080, 72 h, HT1080 cell line (connective tissue)
  IC50: 2690 nM
Homo sapiens, HeLa, HELA cell line (cervical)
  IC50: > 50000 nM
Homo sapiens, HepG2, 72 h, HEPG2 cell line (liver)
  IC50: 770 nM
Homo sapiens, IGROV-1, 72 h, IGROV1 cell line (ovary)
  IC50: 2990 nM
Homo sapiens, IMR-90, 72 h, IMR.90 cell line
  IC50: > 50000 nM
Homo sapiens, J82, 72 h, J82 cell line (bladder)
  IC50: 1000 nM
Homo sapiens, JEG-3, 72 h, JEG3 cell line (placenta)
  IC50: 1170 nM
Homo sapiens, JIMT-1, 72 h, JIMT1 cell line (breast)
  IC50: 7280 nM
Homo sapiens, K562, 72 h, K-562 cell line (hematological)
  IC50: 5830 nM
Homo sapiens, Kasumi 1, 72 h, KASUMI-1 cell line (hematological)
  IC50: > 50000 nM
Homo sapiens, L-363, 72 h, L-363 cell line (hematological)
  IC50: 2800 nM
Homo sapiens, LoVo, LOVO cell line (colon)
  IC50: 510 nM
Homo sapiens, MCF7, 72 h, MCF7 cell line (breast)
  IC50: 170 nM
Homo sapiens, MDA-MB-231, 72 h, MDAMB231 cell line (breast)
  IC50: > 50000 nM
Homo sapiens, MDA-MB-435, 72 h, MDAMB435 cell line (skin)
  IC50: 2440 nM
Homo sapiens, MDA-MB-436, 72 h, MDAMB436 cell line (breast)
  IC50: 420 nM
Homo sapiens, MDA-MB-468, 72 h, MDAMB468 cell line (breast)
  IC50: 2880 nM
Homo sapiens, MG-63, 72 h, MG63 cell line (bone)
  IC50: 1810 nM
Homo sapiens, MHH-ES-1, 72 h, MHHES1 cell line (bone)
  IC50: 2290 nM
Homo sapiens, MIA PaCa-2, 72 h, MIAPACA2 cell line (pancreas)
  IC50: 2430 nM
Homo sapiens, MINO, MINO cell line (hematological)
  IC50: 580 nM
Homo sapiens, MV4-11, 72 h, MV4-11 cell line (hematological)
  IC50: 180 nM
Homo sapiens, NCI-H23, 72 h, NCI-H23 cell line (lung)
  IC50: 1410 nM
Homo sapiens, NCI-H82, 72 h, NCIH82 cell line (lung)
  IC50: 4600 nM
Homo sapiens, NCI-H292, 72 h, NCIH292 cell line (lung)
  IC50: > 50000 nM
Homo sapiens, NCI-H460, 72 h, NCIH460 cell line (lung)
  IC50: 600 nM
Homo sapiens, OVCAR-3, 72 h, OVCAR3 cell line (ovary)
  IC50: 5890 nM
Homo sapiens, OVCAR-4, 72 h, OVCAR4 cell line (ovary)
  IC50: 2790 nM
Homo sapiens, PANC-1, 72 h, PANC1 cell line (pancreas)
  IC50: 4990 nM
Homo sapiens, PC-3, 72 h, PC3 cell line (prostate)
  IC50: 8200 nM
Homo sapiens, PLC-PRF-5, 72 h, PLCPRF5 cell line (liver)
  IC50: 1720 nM
Homo sapiens, Panc1005, 72 h, PANC1005 cell line (pancreas)
  IC50: > 50000 nM
Homo sapiens, RD, RD cell line (muscle)
  IC50: 3490 nM
Homo sapiens, Ramos, RAMOS cell line (hematological)
  IC50: 3140 nM
Homo sapiens, SAOS-2, 72 h, SAOS2 cell line (bone)
  IC50: 1140 nM
Homo sapiens, SF-268, 72 h, SF268 cell line (brain)
  IC50: 1070 nM
Homo sapiens, SF-295, 72 h, SF295 cell line (brain)
  IC50: 1200 nM
Homo sapiens, SK-BR-3, 72 h, SKBR3 cell line (breast)
  IC50: 40 nM
Homo sapiens, SK-HEP1, 72 h, SKHEP1 cell line (liver)
  IC50: 1360 nM
Homo sapiens, SK-LMS-1, 72 h, SKLMS1 cell line (uterus)
  IC50: 1140 nM
Homo sapiens, SK-MEL-28, 72 h, SKMEL28 cell line (skin)
  IC50: > 50000 nM
Homo sapiens, SK-N-AS, SKNAS cell line (brain)
  IC50: > 50000 nM
Homo sapiens, SK-N-SH, SKNSH cell line (brain)
  IC50: > 50000 nM
Homo sapiens, SK-OV-3, 72 h, SKOV3 cell line (ovary)
  IC50: 810 nM
Homo sapiens, SNB-75, 72 h, SNB75 cell line (brain)
  IC50: > 50000 nM
Homo sapiens, SU-DHL10, 72 h, SU-DHL-10 cell line (hematological)
  IC50: 4950 nM
Homo sapiens, SU-DHL-6, 72 h, SU-DHL-6 cell line (hematological)
  IC50: 5490 nM
Homo sapiens, SW-620, 72 h, SW620 cell line (colon)
  IC50: 390 nM
Homo sapiens, T-24, 72 h, T24 cell line (bladder)
  IC50: 2840 nM
Homo sapiens, TE-671, 72 h, TE671 cell line (muscle)
  IC50: 5920 nM
Homo sapiens, THP-1, 72 h, THP-1 cell line (hematological)
  IC50: 1690 nM
Homo sapiens, U2OS, U2OS cell line (bone)
  IC50: > 50000 nM
Homo sapiens, U-87 MG, U87MG cell line (brain)
  IC50: > 50000 nM
Homo sapiens, UMUC3, 72 h, UMUC3 cell line (bladder)
  IC50: 2450 nM
Homo sapiens, UO-31, 72 h, UO31 cell line (kidney)
  IC50: > 50000 nM
Homo sapiens, WSU-NHL, WSU-NHL cell line (hematological)
  IC50: 610 nM
MT-3, 72 h, MT3 cell line (breast)
  IC50: 900 nM
NCI-H358M, NCIH358M cell line (lung)
  IC50: 1340 nM
PBMC, PBMC (hematological)
  IC50: 4980 nM
RD-ES, RDES cell line (bone)
  IC50: 1290 nM
